Test results as given in patent US9518018B2, “3-alkoxy, thioalkyl and amino-4-amino-6-(substituted)picolinates and their use as herbicides” (Dow AgroSciences LLC, priority 2011, dated 2016).
Read-outs that look alike come from different tables or passages of the source. Values belong to the compound of their own block, whether it stands above or below them.

Tests used:
[1] = tested on: CHEAL: lambsquarters (Chenopodium album); test: Post-Emergent Test I herbicidal activity; type: in vivo; settings: for pest or weed control at 140 g/ha: Table 3, 140 g ai/ha
In short: (§1)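 Visual injury ratings (0 = none, 100 = complete kill) taken 14 d after treatment underlie these values, with GR20, GR50 and GR80 obtained by probit analysis. Plants were treated post-emergence at the first or second true-leaf stage by overhead spray at 187 L/ha.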

[2] = tested on: ABUTH: velvetleaf (Abutilon theophrasti); test: Post-Emergent Test I herbicidal activity; type: in vivo
In short: as §1

[3] = tested on: ZEAMX: corn (Zea mays); test: Post-Emergent Test I herbicidal activity; type: in vivo
In short: as §1

[4] = tested on: ECHCG: barnyardgrass (Echinochloa crus-galli); test: Post-Emergent Test I herbicidal activity; type: in vivo; settings: post-emergence, 336 h, Table 3, 140 g ai/ha, read-out: Visual Growth Reduction (%)-14 Days after Application ECHCG
In short: (§2)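 Greenhouse plants at first-second true leaf stage sprayed post-emergence by track sprayer at 187 L/ha with compound in acetone/DMSO/water/isopropanol carrier with crop oil concentrate and Triton X-155, top rate plus ½× to 1/16× serial rates. Injury scored visually at 14 d, 0-100% versus untreated plants; GR20, GR50, GR80 from probit analysis.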

[5] = tested on: TRZAS: wheat, spring (Triticum aestivum); test: Post-Emergent Test I herbicidal activity; type: in vivo
In short: as §2

[6] = tested on: ORYSA: rice (Oryza sativa); test: Post-Emergent Test I herbicidal activity; type: in vivo; settings: post-emergence, 336 h, Table 3, 140 g ai/ha, read-out: Visual Growth Reduction (%)-14 Days after Application ORYSA
In short: as §2

[7] = tested on: CYPES: yellow nutsedge (Cyperus esculentus); test: Post-Emergent Test I herbicidal activity; type: in vivo; settings: post-emergence, 336 h, Table 3, 140 g ai/ha, read-out: Visual Growth Reduction (%)-14 Days after Application CYPES
In short: as §1

[8] = tested on: EPHHL: wild poinsettia (Euphorbia heterophylla); test: Post-Emergent Test I herbicidal activity; type: in vivo; settings: post-emergence, 336 h, Table 3, 140 g ai/ha, read-out: Visual Growth Reduction (%)-14 Days after Application EPHHL
In short: as §1

[9] = tested on: POLCO: buckwheat, wild (Polygonum convolvulus); test: Post-Emergent Test I herbicidal activity; type: in vivo
In short: as §1

[10] = Chenopodium album, post-emergence, 336 h, read-out: Visual Growth Reduction (%)-14 Days after Application CHEAL
[11] = Table 4, growth reduction of 20% of plant growth, 14 days after application, probit analysis
[12] = Table 4, growth reduction of 50% of plant growth, 14 days after application, probit analysis
[13] = Table 4, growth reduction of 80% of plant growth, 14 days after application, probit analysis
[14] = Abutilon theophrasti, post-emergence, 336 h, Table 3, 140 g ai/ha, read-out: Visual Growth Reduction (%)-14 Days after Application ABUTH
[15] = Zea mays, post-emergence, 336 h, Table 3, 140 g ai/ha, read-out: Visual Growth Reduction (%)-14 Days after Application ZEAMX

- melting point: 139 to 144 °C
Compound: COC(=O)c1nc(-c2ccc(Cl)cc2F)cc(N)c1OC [Compound 6, Methyl 4-amino-6-(4-chloro-2-fluorophenyl)-3-methoxypicolinate]
- pest or weed control at 140 g/ha [1, 10]: 100%
- pest or weed control at 8.75 g/ha ([1]; Chenopodium album, post-emergence, 336 h, Table 4, 8.75 g ai/ha, read-out: Visual Growth Reduction (%)-14 Days after Application CHEAL): 90%
- pest or weed control at 17.5 g/ha ([1]; Chenopodium album, post-emergence, 336 h, Table 4, 17.5 g ai/ha, read-out: Visual Growth Reduction (%)-14 Days after Application CHEAL): 100%
- pest or weed control at 35 g/ha ([1]; Chenopodium album, post-emergence, 336 h, Table 4, 35 g ai/ha, read-out: Visual Growth Reduction (%)-14 Days after Application CHEAL): 100%
- pest or weed control at 70 g/ha ([1]; Chenopodium album, post-emergence, 336 h, Table 4, 70 g ai/ha, read-out: Visual Growth Reduction (%)-14 Days after Application CHEAL): 100%
- Visual Growth Reduction (%)-14 Days after Application CHEAL ([1]; Table 4, 140 g ai/ha): 100%
- GR20 CHEAL [1, 11]: <8.75 g ai/ha
- GR50 CHEAL [1, 12]: <8.75 g ai/ha
- GR80 CHEAL [1, 13]: <8.75 g ai/ha
- pest or weed control at 140 g/ha [2, 14]: 60%
- pest or weed control at 8.75 g/ha ([2]; Abutilon theophrasti, post-emergence, 336 h, Table 4, 8.75 g ai/ha, read-out: Visual Growth Reduction (%)-14 Days after Application ABUTH): 50%
- pest or weed control at 17.5 g/ha ([2]; Abutilon theophrasti, post-emergence, 336 h, Table 4, 17.5 g ai/ha, read-out: Visual Growth Reduction (%)-14 Days after Application ABUTH): 75%
- pest or weed control at 35 g/ha ([2]; Abutilon theophrasti, post-emergence, 336 h, Table 4, 35 g ai/ha, read-out: Visual Growth Reduction (%)-14 Days after Application ABUTH): 80%
- pest or weed control at 70 g/ha ([2]; Abutilon theophrasti, post-emergence, 336 h, Table 4, 70 g ai/ha, read-out: Visual Growth Reduction (%)-14 Days after Application ABUTH): 85%
- pest or weed control at 140 g/ha ([2]; Abutilon theophrasti, post-emergence, 336 h, Table 4, 140 g ai/ha, read-out: Visual Growth Reduction (%)-14 Days after Application ABUTH): 85%
- GR20 ABUTH [2, 11]: <8.75 g ai/ha
- GR50 ABUTH [2, 12]: 6.42 g ai/ha
- GR80 ABUTH [2, 13]: 38.1 g ai/ha
- GR20 ZEAMX [3, 11]: 132 g ai/ha
- GR50 ZEAMX [3, 12]: >140 g ai/ha
- GR80 ZEAMX [3, 13]: >140 g ai/ha
- pest or weed control at 140 g/ha [3, 15]: 0%
- pest or weed control at 8.75 g/ha ([3]; Zea mays, post-emergence, 336 h, Table 4, 8.75 g ai/ha, read-out: Visual Growth Reduction (%)-14 Days after Application ZEAMX): 0%
- pest or weed control at 17.5 g/ha ([3]; Zea mays, post-emergence, 336 h, Table 4, 17.5 g ai/ha, read-out: Visual Growth Reduction (%)-14 Days after Application ZEAMX): 0%
- pest or weed control at 35 g/ha ([3]; Zea mays, post-emergence, 336 h, Table 4, 35 g ai/ha, read-out: Visual Growth Reduction (%)-14 Days after Application ZEAMX): 0%
- pest or weed control at 70 g/ha ([3]; Zea mays, post-emergence, 336 h, Table 4, 70 g ai/ha, read-out: Visual Growth Reduction (%)-14 Days after Application ZEAMX): 10%
- pest or weed control at 140 g/ha ([3]; Zea mays, post-emergence, 336 h, Table 4, 140 g ai/ha, read-out: Visual Growth Reduction (%)-14 Days after Application ZEAMX): 20%
- pest or weed control at 140 g/ha [4]: 0%
- Visual Growth Reduction (%)-14 Days after Application TRZAS ([5]; Table 4, 8.75 g ai/ha): 0%
- Visual Growth Reduction (%)-14 Days after Application TRZAS ([5]; Table 4, 17.5 g ai/ha): 0%
- Visual Growth Reduction (%)-14 Days after Application TRZAS ([5]; Table 4, 35 g ai/ha): 15%
- Visual Growth Reduction (%)-14 Days after Application TRZAS ([5]; Table 4, 70 g ai/ha): 45%
- Visual Growth Reduction (%)-14 Days after Application TRZAS ([5]; Table 4, 140 g ai/ha): 50%
- GR20 TRZAS [5, 11]: 47.5 g ai/ha
- GR50 TRZAS [5, 12]: 109 g ai/ha
- GR80 TRZAS [5, 13]: >140 g ai/ha
- pest or weed control at 140 g/ha [6]: 5%
- pest or weed control at 140 g/ha [7]: 20%
- pest or weed control at 140 g/ha [8]: 100%
- Visual Growth Reduction (%)-14 Days after Application POLCO ([9]; Table 4, 8.75 g ai/ha): 0%
- Visual Growth Reduction (%)-14 Days after Application POLCO ([9]; Table 4, 17.5 g ai/ha): 100%
- Visual Growth Reduction (%)-14 Days after Application POLCO ([9]; Table 4, 70 g ai/ha): 100%
- Visual Growth Reduction (%)-14 Days after Application POLCO ([9]; Table 4, 140 g ai/ha): 100%
- GR20 POLCO [9, 11]: 10.7 g ai/ha
- GR50 POLCO [9, 12]: 12.4 g ai/ha
- GR80 POLCO [9, 13]: 14.3 g ai/ha

- melting point: 118 °C
Compound: COc1c(C(=O)OCc2ccccc2)nc(-c2ccc(Cl)c(OC)c2F)c(F)c1N [Compound 66, benzyl 4-amino-6-(4-chloro-2-fluoro-3-methoxyphenyl)-5-fluoro-3-methoxypicolinate]
- pest or weed control at 140 g/ha [1, 10]: 100%
- pest or weed control at 140 g/ha [2, 14]: 100%
- pest or weed control at 140 g/ha [3, 15]: 80%
- pest or weed control at 140 g/ha [4]: 60%
- pest or weed control at 140 g/ha [6]: 0%
- pest or weed control at 140 g/ha [7]: 100%
- pest or weed control at 140 g/ha [8]: 100%
